Assay results published in patent publication EP0181471A1, “Pyrazole derivatives, process for their preparation and medicaments containing them” (LUDWIG HEUMANN & CO GMBH, priority 1984, dated 1986).

Tested on: Histamin-H2-Rezeptoren
Test: Inhibition of histamine-stimulated gastric acid secretion in the conscious fistula cat
Assay type: in vivo
Details: wache Fistelkatze; Stimulator: Histamin; i.V.
Text: Weiterhin kann die H2-antagonistische Wirkung an wachen Heidennain-Pouch-Hunden nach der Methode von Black et al., "Nature" 236, 385 (1972) und an wachen Fistelkatzen gezeigt werden.

Question: Which ID50 does the source give for CN=C(NC#N)NCCSCc1nc[nH]c1C [CIMETIDIN, Cimetidin] here?
Answer: The ID50 was 1,4 umol/k^g.
